Reference: patent US10774084B2, “Adenine derivatives and their use as UV-photoprotective agents” (UNIVERZITA PALACKEHO V OLOMOUCI, priority 2015, dated 2020)

Test system: human dermal fibroblast (HDF)
Assay: Comparative gene expression analysis (mRNA sequencing)
Assay type: cell-based
Conditions: 5 μM, 24 h
Description: Comparative gene expression analysis in human dermal fibroblast (HDF) was performed to gain insight into role of compound 1 in the photoprotection against UV-induced damage. Three independent HDF lines form three patients were treated with 5 μM 1 for 24 h or mock-treated with DMSO. Alternatively, the above three biological samples (without 1) were irradiated with UV light (5 J/cm2). 1.5-3.0×10^6 cells from each treatment or control was used for isolation of total RNA using trizol. cDNA sequencing libraries were prepared with the Illumina TruSeq Stranded mRNA LT Sample Prep Kit (Illumina, San Diego, Calif.) according to standard Illumina's protocols and sequenced on HiSeq 2500 apparatus (50 bp single-end reads).
To reveal the molecular mechanism of the action of 1, we compared data from mock (DMSO)-treated HDF or UV-treated HDF with those obtained after 24 h treatment with 1. For data analysis, we performed ab initio method where sequencing reads were mapped to the reference genome. […] These included calcium-activated potassium channel KCNN4, calcium sensor DYSF or calcium-dependent phospholipid-binding protein CPNE7. […] Thus, 1 seems to protect cells against oxidative damage caused primarily by UV-light or other stress conditions.

[1] = 1-treated vs UV-treated group, P<0.05

Q: For `c1nc(NCC2CCCO2)c2ncn(C3CCCO3)c2n1` (centres unmarked) [Compound 1, 6-(tetrahydrofuran-2-ylmethylamino)-9-(tetrahydrofuran-2-yl)purine], which “number of differentially regulated genes” value [1] is on record?
A: 1306 genes

Q: And the “number of downregulated genes” value [1]?
A: 441 genes

Q: And the “number of upregulated genes” value [1]?
A: 865 genes

Q: What about the “significantly regulated genes, control group vs samples treated with 1 (in words)” value (vs DMSO mock) of the same molecule?
A: did not show any significantly regulated genes

Q: What about the “logFC ABCG1” value (vs UV-treated group) of the same molecule?
A: −2.63

Q: And the “logFC AC002456.2” value (vs UV-treated group)?
A: 1.58

Q: And the “logFC AC003986.6” value (vs UV-treated group)?
A: −1.65

Q: What about the “logFC ADAMTS9-AS2” value (vs UV-treated group) of the same molecule?
A: −1.63

Q: What about the “logFC ADGRG1” value (vs UV-treated group) of the same molecule?
A: 1.52

Q: And the “logFC ANGPTL4” value (vs UV-treated group)?
A: 1.73

Q: What about the “logFC ANKRD33” value (vs UV-treated group) of the same molecule?
A: 2.69

Q: What about the “logFC APOL6” value (vs UV-treated group) of the same molecule?
A: −1.51

Q: And the “logFC ARHGAP22” value (vs UV-treated group)?
A: 1.66

Q: And the “logFC B4GALNT1” value (vs UV-treated group)?
A: 1.55

Q: What about the “logFC BHLHE22” value (vs UV-treated group) of the same molecule?
A: −1.90

Q: And the “logFC BRINP2” value (vs UV-treated group)?
A: −1.77

Q: What about the “logFC BTC” value (vs UV-treated group) of the same molecule?
A: −1.84

Q: And the “logFC CCDC107” value (vs UV-treated group)?
A: 1.50

Q: What about the “logFC CCL8” value (vs UV-treated group) of the same molecule?
A: −2.80

Q: What about the “logFC CCL26” value (vs UV-treated group) of the same molecule?
A: 1.75

Q: What about the “logFC CD163” value (vs UV-treated group) of the same molecule?
A: 1.67

Q: And the “logFC CFB” value (vs UV-treated group)?
A: −1.96

Q: What about the “logFC CHRNA9” value (vs UV-treated group) of the same molecule?
A: 2.21

Q: And the “logFC CITED4” value (vs UV-treated group)?
A: 1.63

Q: And the “logFC CLNS1AP1” value (vs UV-treated group)?
A: −1.80

Q: And the “logFC CPNE7” value (vs UV-treated group)?
A: 1.61

Q: And the “logFC CTD-2587H24.5” value (vs UV-treated group)?
A: 1.54

Q: And the “logFC CXCL9” value (vs UV-treated group)?
A: −1.79

Q: And the “logFC CYP51A1” value (vs UV-treated group)?
A: 1.65

Q: And the “logFC DHRS3” value (vs UV-treated group)?
A: −1.60

Q: What about the “logFC DYSF” value (vs UV-treated group) of the same molecule?
A: 1.73

Q: What about the “logFC EBF2” value (vs UV-treated group) of the same molecule?
A: 1.62

Q: And the “logFC FAM20A” value (vs UV-treated group)?
A: −1.86

Q: And the “logFC FAM81A” value (vs UV-treated group)?
A: 1.71

Q: And the “logFC FGD3” value (vs UV-treated group)?
A: −1.93

Q: What about the “logFC FOLR3” value (vs UV-treated group) of the same molecule?
A: 1.68

Q: And the “logFC GBP2” value (vs UV-treated group)?
A: −1.61

Q: What about the “logFC GPR37L1” value (vs UV-treated group) of the same molecule?
A: −1.66

Q: What about the “logFC HAUS1P2” value (vs UV-treated group) of the same molecule?
A: −1.54

Q: And the “logFC HCK” value (vs UV-treated group)?
A: −1.66

Q: What about the “logFC HS3ST2” value (vs UV-treated group) of the same molecule?
A: 2.50

Q: What about the “logFC IFIT2” value (vs UV-treated group) of the same molecule?
A: −1.77

Q: And the “logFC ITGA10” value (vs UV-treated group)?
A: 1.77

Q: And the “logFC JAK3” value (vs UV-treated group)?
A: −1.68

Q: And the “logFC KCNN4” value (vs UV-treated group)?
A: 1.85

Q: What about the “logFC KCNT2” value (vs UV-treated group) of the same molecule?
A: −2.21

Q: And the “logFC KIF1A” value (vs UV-treated group)?
A: 3.05

Q: What about the “logFC LINC00702” value (vs UV-treated group) of the same molecule?
A: 1.60

Q: What about the “logFC LINC00704” value (vs UV-treated group) of the same molecule?
A: 1.69

Q: And the “logFC LINC01204” value (vs UV-treated group)?
A: 1.64

Q: What about the “logFC MET” value (vs UV-treated group) of the same molecule?
A: 1.63

Q: What about the “logFC MOB3B” value (vs UV-treated group) of the same molecule?
A: −1.70

Q: What about the “logFC MYEOV” value (vs UV-treated group) of the same molecule?
A: 1.98

Q: What about the “logFC NRROS” value (vs UV-treated group) of the same molecule?
A: 1.74

Q: And the “logFC NUDT8” value (vs UV-treated group)?
A: 1.56

Q: And the “logFC PPP2R2C” value (vs UV-treated group)?
A: 1.95

Q: What about the “logFC PSAT1P3” value (vs UV-treated group) of the same molecule?
A: −2.19

Q: What about the “logFC RARRES3” value (vs UV-treated group) of the same molecule?
A: −2.09

Q: And the “logFC RNF150” value (vs UV-treated group)?
A: −1.80

Q: What about the “logFC RORB” value (vs UV-treated group) of the same molecule?
A: −1.57

Q: And the “logFC RP1-181J22.1” value (vs UV-treated group)?
A: −2.53

Q: And the “logFC RP11-21C4.1” value (vs UV-treated group)?
A: −1.95

Q: What about the “logFC RP11-54A9.1” value (vs UV-treated group) of the same molecule?
A: 1.63

Q: And the “logFC RP11-184E9.1” value (vs UV-treated group)?
A: 1.78

Q: What about the “logFC RP11-363H12.1” value (vs UV-treated group) of the same molecule?
A: −1.58

Q: And the “logFC RP11-367F23.2” value (vs UV-treated group)?
A: 1.70

Q: What about the “logFC RP11-379B8.1” value (vs UV-treated group) of the same molecule?
A: −1.72

Q: What about the “logFC RP11-383F6.1” value (vs UV-treated group) of the same molecule?
A: −1.50

Q: And the “logFC RP11-400K9.4” value (vs UV-treated group)?
A: −1.51

Q: And the “logFC RP11-541M12.6” value (vs UV-treated group)?
A: 1.70

Q: What about the “logFC RP11-1100L3.8” value (vs UV-treated group) of the same molecule?
A: −1.70

Q: What about the “logFC RPL34P31” value (vs UV-treated group) of the same molecule?
A: −1.89

Q: What about the “logFC SCG2” value (vs UV-treated group) of the same molecule?
A: 2.00

Q: What about the “logFC SERPINB9” value (vs UV-treated group) of the same molecule?
A: −1.59

Q: What about the “logFC SLC20A1” value (vs UV-treated group) of the same molecule?
A: 1.56

Q: And the “logFC STX1A” value (vs UV-treated group)?
A: 1.55

Q: And the “logFC TGM2” value (vs UV-treated group)?
A: 1.58

Q: And the “logFC TLR2” value (vs UV-treated group)?
A: −1.63

Q: And the “logFC TM4SF1” value (vs UV-treated group)?
A: 2.08

Q: What about the “logFC TMEM154” value (vs UV-treated group) of the same molecule?
A: 1.57

Q: What about the “logFC TMEM178A” value (vs UV-treated group) of the same molecule?
A: −1.52

Q: What about the “logFC TMEM233” value (vs UV-treated group) of the same molecule?
A: 2.12

Q: What about the “logFC TNFRSF9” value (vs UV-treated group) of the same molecule?
A: −1.68

Q: And the “logFC TNFSF10” value (vs UV-treated group)?
A: −2.14

Q: What about the “logFC TNFSF13B” value (vs UV-treated group) of the same molecule?
A: −1.61

Q: And the “logFC TP63” value (vs UV-treated group)?
A: −1.61
